Data as given in patent publication US11478457B2, “Castration-resistant prostate cancer” (priority 2015, dated 2022).
Changes are numbered by the printed parent chain.

Legend:
[1] = molecular target: T1, UDP-glucose dehydrogenase (Homo sapiens, UniProt O60701); experiment: High throughput screening for inhibitors of UDP-glucose dehydrogenase (NADH fluorescence); format: biochemical; details: read-out: POC (Percent of Controls); for inhibition at 25 µg/mL (stock): compound plates 20 μL/well of 25 μg/mL compound in 2.5% DMSO, relative to DMSO negative and UDP-xylose positive controls, higher POC = more inhibitory
T1 sequence (O60701 1-494): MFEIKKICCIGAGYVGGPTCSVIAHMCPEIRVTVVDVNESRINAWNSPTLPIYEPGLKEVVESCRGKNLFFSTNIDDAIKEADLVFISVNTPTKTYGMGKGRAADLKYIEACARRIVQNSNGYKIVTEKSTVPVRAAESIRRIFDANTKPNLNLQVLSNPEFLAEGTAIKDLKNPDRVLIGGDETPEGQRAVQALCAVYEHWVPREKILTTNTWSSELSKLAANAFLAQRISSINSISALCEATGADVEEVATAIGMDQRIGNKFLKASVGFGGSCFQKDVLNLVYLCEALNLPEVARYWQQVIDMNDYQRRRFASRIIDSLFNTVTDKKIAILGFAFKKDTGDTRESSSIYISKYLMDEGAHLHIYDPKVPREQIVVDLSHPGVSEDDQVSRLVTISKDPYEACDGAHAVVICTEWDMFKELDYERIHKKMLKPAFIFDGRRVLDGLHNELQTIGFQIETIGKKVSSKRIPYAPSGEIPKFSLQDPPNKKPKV

WT UGDH [2] = molecular target: T2, WT UGDH (Homo sapiens, UniProt O60701); experiment: UGDH inhibition assay (IC50, Ki), WT enzyme; format: biochemical; details: for IC50: 50 μM UDP-glc and 1 mM NAD+; for Mode of inhibition: UGDH
T2 sequence (O60701 1-494): T1 sequence (O60701 1-494)
Protocol: (§1) Ki values were determined by varying [UDP-glc] and holding NAD+ at saturating concentrations.
(§2) IC50 experiments were performed as described above (see e.g., Example 2).

[3] = molecular target: T3, T325A-UGDH (inducible hexamer) (Homo sapiens, UniProt O60701, T325A); experiment: UGDH inhibition assay (IC50, Ki), T325A mutant; format: biochemical
T3 sequence (O60701 1-494 T325A): T1 sequence (O60701 1-494) with T325A
Protocol: as §1, §2

WT UGDH [4] = molecular target: T2, WT UGDH; experiment: Thermal stability of UGDH, WT; format: binding
Protocol: (§3) FIG. 8A-8D show UDP-xylose effects on the thermal stability of WT, T325A (inducible hexamer), and T325D (obligate dimer) UGDH. […] Statistical analyses were performed using a two-way ANOVA with Bonferroni post tests on PRISM.

[5] = molecular target: T4, T325A (inducible hexamer) UGDH (Homo sapiens, UniProt O60701, T325A); experiment: Thermal stability of UGDH, T325A; format: binding
T4 sequence (O60701 1-494 T325A): T1 sequence (O60701 1-494) with T325A
Protocol: as §3

[6] = molecular target: T5, T325D (obligate dimer) UGDH (Homo sapiens, UniProt O60701, T325D); experiment: Thermal stability of UGDH, T325D; format: binding
T5 sequence (O60701 1-494 T325D): T1 sequence (O60701 1-494) with T325D
Protocol: as §3

UGDH T325A = molecular target: T6, UGDH T325A (Homo sapiens, UniProt O60701, T325A); experiment: Limited trypsin proteolysis of UGDH, T325A
T6 sequence (O60701 1-494 T325A): T1 sequence (O60701 1-494) with T325A
Protocol: (§4) UDP-xylose [20 μM] protected T325A apo from trypsin digestion (red star) and only slightly affected the other forms. […] Each assay contained 10 μg of enzyme, 10 ng Trypsin, and combinations of substrate, cofactor, and UDP-xylose, which was incubated 2.5 h, followed by SDS-PAGE.
(§5) The same procedures from above (see e.g., Example 7) were followed.

[7] = molecular target: T7, T325D-UGDH (obligate dimer) (Homo sapiens, UniProt O60701, T325D); experiment: UGDH inhibition assay (IC50, Ki), T325D mutant; format: biochemical; details: required 4 μM T325D instead of 1 μM
T7 sequence (O60701 1-494 T325D): T1 sequence (O60701 1-494) with T325D
Protocol: as §1, §2

WT UGDH [8] = molecular target: T2, WT UGDH; experiment: Limited trypsin proteolysis of UGDH, WT; details: WT ternary complexes; 500 μM
Protocol: as §4, §5

WT UGDH [9] = molecular target: T2, WT UGDH; experiment: UGDH kinetic characterization, WT; format: biochemical; details: substrate/cofactor varied
Text: (§6) T325A and T325D are engineered inducible hexameric and obligate dimeric UGDH species, respectively.

T325A-UGDH = molecular target: T8, T325A-UGDH (Homo sapiens, UniProt O60701, T325A); experiment: UGDH kinetic characterization, T325A; format: biochemical; details: substrate/cofactor varied
T8 sequence (O60701 1-494 T325A): T1 sequence (O60701 1-494) with T325A
Text: as §6

T325D-UGDH = molecular target: T9, T325D-UGDH (Homo sapiens, UniProt O60701, T325D); experiment: UGDH kinetic characterization, T325D; format: biochemical; details: substrate/cofactor varied
T9 sequence (O60701 1-494 T325D): T1 sequence (O60701 1-494) with T325D
Text: as §6

UGDH T325D = molecular target: T10, UGDH T325D (Homo sapiens, UniProt O60701, T325D); experiment: Limited trypsin proteolysis of UGDH, T325D; details: 20 μM, 2.5 h
T10 sequence (O60701 1-494 T325D): T1 sequence (O60701 1-494) with T325D
Protocol: as §4, §5

`COc1ccc2[nH]cc(CCNC(=O)c3ccc([N+](=O)[O-])cc3)c2c1` gave an inhibition at 25 µg/mL (stock) [1] of 61%.

Work on `O=C1CC(Sc2nnnn2-c2ccccc2)C(=O)N1c1ccc([N+](=O)[O-])cc1` (stereo not drawn) yielded an inhibition at 25 µg/mL (stock) [1] of 73%.

`CC(=O)NC(CC(=O)c1ccc(Cl)cc1Cl)C(Cl)(Cl)Cl` (stereo not drawn) gave an inhibition at 25 µg/mL (stock) [1] of 86%.

Compound `COc1cc(/C=C(\C)[N+](=O)[O-])cc(OC)c1OC` has an inhibition at 25 µg/mL (stock) [1] of 61%.

Compound `Cc1sc(NC(=O)Cc2ccc([N+](=O)[O-])cc2)c(C(N)=O)c1C` has an inhibition at 25 µg/mL (stock) [1] of 75%.

For `CC/C(=C/c1ccc(O)c(OC)c1)[N+](=O)[O-]`, the inhibition at 25 µg/mL (stock) [1] was 63%.

For `COCc1cc(C(C)(C)C)c(O)c(O)c1C(C)(C)C`, the inhibition at 25 µg/mL (stock) [1] was 56%.

Work on `CN1CCc2c(sc(N)c2C#N)C1` yielded an inhibition at 25 µg/mL (stock) [1] of 55%.

In the case of `Nc1ncc(C2=C(Cl)C(O)C(Cl)=C(Cl)C2O)s1` (stereo not drawn), the inhibition at 25 µg/mL (stock) [1] is reported as 71%.

Compound `N#CSc1cnc(NC2CCCCC2)s1` has an inhibition at 25 µg/mL (stock) [1] of 66%.

`O=C(/C=C/c1ccco1)c1ccc(NC(=O)c2ccco2)cc1` showed an inhibition at 25 µg/mL (stock) [1] of 55%.

`Cc1ccccc1-c1nnc(N)s1` showed an inhibition at 25 µg/mL (stock) [1] of 51%.

With `CC(=O)C1=C(C)NC(SCc2cccc([N+](=O)[O-])c2)=C(C#N)C1c1cccnc1` (stereo not drawn) the inhibition at 25 µg/mL (stock) [1] was 51%.

Compound `CCc1c(C)sc(NC(=O)c2cccc([N+](=O)[O-])c2C)c1C(N)=O` has an inhibition at 25 µg/mL (stock) [1] of 58%.

With `CCc1c(C)sc(NC(=O)c2ccoc2C)c1C(N)=O` the inhibition at 25 µg/mL (stock) [1] was 50%.

Work on `O=C(Nc1ccc2c(c1)OCCO2)c1cc2ccccc2o1` yielded an inhibition at 25 µg/mL (stock) [1] of 103%.

Compound `NC(=O)c1c(NC(=O)C2CCCO2)sc2c1CCCCCC2` (stereo not drawn) has an inhibition at 25 µg/mL (stock) [1] of 74%.

For `O=[N+]([O-])c1ccc2[nH]c(-c3ccco3)nc2c1`, the inhibition at 25 µg/mL (stock) [1] was 46%.

For `Brc1ccc(C2Nc3ccccc3N2)o1`, the inhibition at 25 µg/mL (stock) [1] was 65%.

`Cc1cc(=O)n2ccc(N)c(O)c2n1` was tested, and the inhibition at 25 µg/mL (stock) [1] was 50%.

`c1ccc(Nc2nc(-c3ccccc3)[n+](-c3ccccc3)s2)cc1` was tested, and the inhibition at 25 µg/mL (stock) [1] was 52%.

Compound `O=C1CC(Sc2nc3ccccc3s2)C(=O)N1c1ccccc1I` (stereo not drawn) has an inhibition at 25 µg/mL (stock) [1] of 58%.

Compound `COc1cc(NC(=O)COc2ccc(C)cc2C)ccc1NC(=O)c1ccco1` has an inhibition at 25 µg/mL (stock) [1] of 70%.

`O=C1C(Cl)=C(Cl)C(=O)C(Cl)=C1Cl` showed an inhibition at 25 µg/mL [1] of 79%.

In the case of `CCC(C)(O)c1nnn(-c2nonc2N)c1C(C)(O)CC` (stereo not drawn) [Compound 1, 2,2′-[1-(4-amino-1,2,5-oxadiazol-3-yl)-1H-1,2,3-triazole-4,5-diyl]di(2-butanol)], the IC50 (WT UGDH [2]; WT-UGDH) is reported as 261 ± 6.2 µM, the Ki ([3]; varying [UDP-glc], NAD+ at saturating concentrations) is reported as 421 ± 118 µM and the “Effect on thermal stability” value (WT UGDH [4]; UDP-glcA complex with WT) is reported as “decrease thermal stability”. The “Effect on thermal stability” value ([5]; UDP-glcA complex with T325A) was “decrease thermal stability”, the “Effect on thermal stability” value ([6]; UDP-glcA complex with T325D) was “decrease thermal stability” and the “Effect on trypsin digestion” value (UGDH T325A; T325A with UDP-glcA and UDP-glcA with NADH, 750 μM) was “significantly affects”.

With `O=C(O)CCc1ccc(-c2cccs2)o1` [Compound 31, 3-[5-(2-thienyl)-2-furyl]propanoic acid] the Mode of inhibition (WT UGDH [2]) was “allosteric inhibitor”, the IC50 (WT UGDH [2]; WT-UGDH) was 146.8 ± 1.05 µM and the IC50 [3] was 86.98 ± 0.03 µM. The IC50 [7] was 799.4 ± 0.05 µM, the “Effect on thermal stability” value ([5]; T325A, all binary complexes except UDP-glucose) was “decreasing thermal stability” and the “Effect on thermal stability” value ([6]; T325D, all binary complexes except UDP-glucose) was “decreasing thermal stability”. The “Effect on trypsin digestion” value (WT UGDH [8]) was “significantly affects” and the “Effect on trypsin digestion” value (UGDH T325A; T325A ternary complexes, 500 μM) was “significantly affects”.

Compound `NC(=O)c1ccc[n+]([C@@H]2O[C@H](COP(=O)([O-])OP(=O)(O)OC[C@H]3O[C@@H](n4cnc5c(N)ncnc54)[C@H](O)[C@@H]3O)[C@@H](O)[C@H]2O)c1` [NAD+] has a Km (WT UGDH [9]) of 1030 ± 215 µM, a VMAX (WT UGDH [9]) of 206.1 ± 13.0 nmol/min/mg and a Km (T325A-UGDH) of 1680 ± 455 µM. For the same compound, the VMAX (T325A-UGDH) was 103 ± 8.5 nmol/min/mg, the Km (T325D-UGDH) was 1200 ± 290 µM and the VMAX (T325D-UGDH) was 38.0 ± 2.5 nmol/min/mg.

With `O=c1ccn([C@@H]2O[C@H](COP(=O)(O)OP(=O)(O)O[C@H]3OC[C@@H](O)[C@H](O)[C@H]3O)[C@@H](O)[C@H]2O)c(=O)[nH]1` [UDP-xylose, reference compound] the Mode of inhibition (WT UGDH [2]) was “competitive inhibitor”, the IC50 (WT UGDH [2]; WT-UGDH) was 0.58 ± 0.09 µM and the Ki (WT UGDH [2]; WT-UGDH, varying [UDP-glc], NAD+ at saturating concentrations) was 2.67 ± 0.54 µM. The “Effect on thermal stability” value (WT UGDH [4]; NAD+ complex with WT) was “significantly increase thermal stability”, the “Effect on thermal stability” value (WT UGDH [4]; apo WT) was “increased the thermal stability” and the “Effect on thermal stability” value ([5]; NAD+ complex with T325A) was “significantly increase thermal stability”. The “Effect on thermal stability” value ([5]; apo T325A) was “increased the thermal stability”, the “Effect on thermal stability” value ([6]; NAD+ complex with T325D) was “significantly increase thermal stability” and the “Effect on trypsin digestion” value (UGDH T325A; T325A apo, 20 μM, 2.5 h) was “protected”. For the same compound, the “Effect on trypsin digestion” value (UGDH T325D; T325D apo and UDP-glc forms) was “did not affect” and the “Effect on trypsin digestion” value (UGDH T325D; T325D complexes with NAD+, NADH, and UDP-glcA) was “significantly protected”.

`CCC(C)(O)c1nnn(-c2nonc2N)c1C(C)(O)CC` (stereo not drawn) [drawing 178] gave an inhibition at 25 µg/mL (stock) [1] of 101%.

Work on `O=C(O)CCc1ccc(-c2cccs2)o1` [drawing 227] yielded an inhibition at 25 µg/mL (stock) [1] of 87%.
